Patent publication US9115363B2, “Gene expression and eradication system in Helicobacter pylori” (priority 2011, dated 2015)
Where “and” joins values, the source holds several entries; their conditions need not be identical. Identical values can stand only once.

Assays:
ptetR2 and uPtetO1-GFP = test: GFP disc diffusion assay; assay type: cell-based, H. pylori; details: bacterial lawns containing ptetR2 and uPtetO1-GFP; after 24 hours of incubation
[1] = tested on: GFP expression in strains expressing TetR or revTetR; test: GFP fluorescence on blood agar plates with ATc; assay type: cell-based, H. pylori; details: 50 ng/mL ATc in blood agar plates
Protocol: Bacteria were plated onto fresh CBA plates with or without 50 ng/mL ATc and visualized after 24 hr incubation. For Tet-OFF strains, ptetR(2,4,6) bacteria were passaged twice on CBA plates containing ATc prior to the experiments, to allow strains enough time to repress GFP expression.

[2] = tested on: TetR-controlled GFP expression; test: Kinetics of uPtetO1-GFP induction by immunoblotting; assay type: cell-based, H. pylori
Protocol: (§1) Immunoassays—SDS-PAGE and Western Blot Analysis
Whole cell lysates of bacteria growing on either chloramphenicol or streptomycin plates was resuspended in phosphate-buffered saline (PBS) buffer. Cells were pelleted and resuspended in lysis buffer (50 mM Tris-HCl, 250 mM NaCl, 1% triton X-100) and incubated on ice for 15 min. Samples were then sonicated for 10 sec. Insoluble cell debris was removed by centrifugation at 13,000 rpm form 10 min at 4° C. Cell lysates were mixed with sodium dodecyl sulfate (SDS) sample buffer and incubated at 95° C. for 10 min. The proteins were separated by 10% SDS-polyacrylamide gel electrophoresis (PAGE) and electrotransferred to a pvdf (0.22 μm Immobulon, Millipore) membrane at 4° C. with a constant voltage of 90 V in transfer buffer (192 mM glycine, 25 mM Tris, 20% [vol/vol] methanol) for 2 hours. The membrane was blocked by using 2% BSA (Sigma) in PBST (150 mM NaCl, 10 mM Tris-C1, pH 7.0, 0.1% [vol/vol] Tween 20) and then incubated with the appropriate primary antibody, washed and then incubated with a secondary antibody containing a horseradish peroxidise (HRP) conjugate. The membrane was washed again and detection of secondary HRP conjugate was accomplished by chemiluminescence (Sigma). […] Chemiluminescence was detected using LAS 3000 (Fujifilm)(software Image reader LAS 3000 V2.2)

revTetR = revTetR (Escherichia coli, UniProt P0ACT4); details: cited from earlier work
revTetR, sequence (P0ACT4 with tags, fused parts or gaps E15A/L17G/T20V/D23E/L25V/I36V): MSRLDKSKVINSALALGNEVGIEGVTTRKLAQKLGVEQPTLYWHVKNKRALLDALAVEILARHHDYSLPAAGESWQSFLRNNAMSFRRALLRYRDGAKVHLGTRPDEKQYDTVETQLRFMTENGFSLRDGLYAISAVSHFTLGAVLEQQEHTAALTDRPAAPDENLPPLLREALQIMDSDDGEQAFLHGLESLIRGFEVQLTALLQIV

[3] = tested on: B128 pHel2-IEC-Ts-FliCsyn transconjugants; test: Immunoblotting of conditional fliCsyn expression; assay type: cell-based, H. pylori; details: selective blood agar plates with 50 ng/ml ATc; all tested clones
Protocol: The conditional expression of fliCsyn and expression of TetRs in the transconjugants B128 pHel2-IEC-Ts-FliCsyn was analyzed by immunobloting.
Bacteria were grown for 24 hours on selective plates or in selective liquid media. Cells were harvested and resuspended in phosphate-buffered saline (PBS) buffer. Samples were then sonicated for 10 seconds, mixed with sodium dodecyl sulfate (SDS) sample buffer and incubated at 37° C. for 15 min. Insoluble cell debris was removed by centrifugation at 13,000 rpm for 1 min. The proteins were separated by 10% SDS-polyacrylamide gel electrophoresis (PAGE) and electro-transferred to a PVDF membrane (Immobilon-P Transfer (0.45 μm, Millipore) with a constant voltage of 100 V in transfer buffer (192 mM glycine, 25 mM Tris, 20% [vol/vol] methanol) for 1 hour. The membranes were blocked with 3% BSA (Sigma) in PBST (150 mM NaCl, 10 mM Tris-C1, pH 7.0, 0.1% [vol/vol] Tween 20) and then incubated with the appropriate primary antibody, washed and then incubated with a secondary antibody containing a horseradish peroxidise (HRP) conjugate. The membrane was washed again and detection of secondary HRP conjugate was accomplished by chemiluminescence (Sigma). For detection of Cre recombinase, rabbit polyclonal IgG anti Cre (abcam) was used at a dilution of 1:1000. […] Chemiluminescence was detected using LAS 3000 (Fujifilm)(software Image reader LAS 3000 V2.2)

[4] = tested on: urease activity of X47 urePtetO strains; test: Liquid urease activity assay; assay type: cell-based, H. pylori
Protocol: Bacteria were grown on CBA plates with or without 50 ng/mL ATc for two successive passages. Bacteria were resuspended in cold buffer A (25 mM phosphate buffer, pH 6.8) and standardized to an OD600 of 4.0. 50 μL of standardized bacterial suspension was diluted with 50 μL of buffer B (25 mM phosphate buffer, pH 6.8, 0.2% tween-20). In 96 well plate, 25 μL of diluted bacterial suspension was diluted with 150 μL of buffer C (25 mM phosphate buffer, pH 6.8, 250 μM phenol red) and incubated for 5 min at 37° C. 75 μL of urea solution (0.5 M) was then added and the absorbance at 560 nm was measured every 72 seconds for 75 cycles using a POLARstar Omega (BGM Labtech) platereader. Activity was measured as the rate of change in absorbance over time and expressed as percent of urease activity of the wild-type parent strain. All urease activity measurements were carried out in triplicate and experiments were repeated three times.

[5] = tested on: TetR-controlled GFP expression (uPtetO-GFP); test: GFP reporter assay, liquid culture (BHI), induction by ATc; assay type: cell-based, H. pylori; details: for induction of GFP expression: 100 ng/mL ATc, BHI media
Protocol: 5 mL cultures were grown for 14 h and then induced with 200 ng/mL ATc unless otherwise stated. Bacteria were harvested by centrifugation, washed twice with PBS and resuspended to a density of 20D600. Then, 0.1 ml of the bacterial suspension was transferred into black 96-well plates, and fluorescence at 520 nm after excitation at 485 nm was measured in using the POLARstar Omega platereader.

urease activity = test: Urease disc diffusion assay; assay type: cell-based, H. pylori; details: plate inoculated with untreated bacteria
Protocol: Bacteria were plated onto urease plates, and blank discs were placed onto the inoculated plate. 10 μL of ATc was placed onto each disc and plates were incubated under microaerophilic conditions and examined for colour change every […].

[6] = tested on: uPtetO-cre in X47 mdaB:: ptetR2; test: Immunoblotting of conditional cre expression; assay type: cell-based, H. pylori; details: 50 ng/ml ATc, liquid culture, trpA:: uPtetO-cre, both strains
From the text: In order to conditionally express the Cre recombinase in H. pylori two Tet responsive promoters uPtetO1 and uPtetO2 were selected to control the cre expression. They consist of the core urease promoter containing a C to T mutation in the −10 box and one tetO site just downstream of the transcriptional start point. uPtetO2 contains a second tetO site between the −35 and −10 box. A synthetic H. pylori codon usage optimized version of the cre gene was amplified and cloned into the plasmid pTrpA-uPtetO1-GFP and pTrpA-uPtetO2-GFP to replace GFP. Natural transformation of the recipient strain H. pylori X47 mdaB:: ptetR2; trpA:: rpsL-CAT with these plasmids (pTrpA-uPtetO(1/2)-Cre) allowed integration of uPtetO-cre fusions in the chromosome at the trpA locus by homologous recombination. The conditional expression of cre in the constructed strains X47 mdaB:: ptetR2; trpA:: uPtetO-cre was analyzed by immunoblotting. Bacteria were grown in liquid culture the presence of none or 50 ng/ml ATc, respectively.
Immunoassay—SDS-PAGE and Western Blot Analysis.
Bacteria were grown for 24 hours on selective plates or in selective liquid media. Cells were harvested and resuspended in phosphate-buffered saline (PBS) buffer. […] Chemiluminescence was detected using LAS 3000 (Fujifilm)(software Image reader LAS 3000 V2.2)

[7] = tested on: urePtetO promoters (UreB subunit); test: Immunoblotting of UreB in urePtetO strains; assay type: cell-based, H. pylori
Protocol: as §1
Whole cell lysates of bacteria growing on either chloramphenicol or streptomycin plates was resuspended in phosphate-buffered saline (PBS) buffer. Cells were pelleted and resuspended in lysis buffer (50 mM Tris-HCl, 250 mM NaCl, 1% triton X-100) and incubated on ice for 15 min. Samples were then sonicated for 10 sec. Insoluble cell debris was removed by centrifugation at 13,000 rpm form 10 min at 4° C. Cell lysates were mixed with sodium dodecyl sulfate (SDS) sample buffer and incubated at 95° C. for 10 min. The proteins were separated by 10% SDS-polyacrylamide gel electrophoresis (PAGE) and electrotransferred to a pvdf (0.22 μm Immobulon, Millipore) membrane at 4° C. with a constant voltage of 90 V in transfer buffer (192 mM glycine, 25 mM Tris, 20% [vol/vol] methanol) for 2 hours. The membrane was blocked by using 2% BSA (Sigma) in PBST (150 mM NaCl, 10 mM Tris-C1, pH 7.0, 0.1% [vol/vol] Tween 20) and then incubated with the appropriate primary antibody, washed and then incubated with a secondary antibody containing a horseradish peroxidise (HRP) conjugate. The membrane was washed again and detection of secondary HRP conjugate was accomplished by chemiluminescence (Sigma). For detection of TetR and revTetR, rabbit polyclonal IgG anti TetR (MoBiTec) at a dilution of 1:2000 was used as the primary. For detection of UreB subunit, mouse monoclonal IgG anti UreB (Austral Biologicals) was used at a dilution of 1:8000. For detection of GFP, rabbit polyclonal anti GFP (Ondek) was used at a dilution of 1:2000. Secondary antibodies, mouse anti-rabbit-HRP and rabbit anti-mouse-HRP (Jackson ImmunoResearch Laboratories) were used at a dilution of 1:10,000. Chemiluminescence was detected using LAS 3000 (Fujifilm)(software Image reader LAS 3000 V2.2)

H. pylori = test: Minimal inhibitory concentration of ATc in liquid culture; assay type: cell-based; details: MIC as measured in liquid culture; maximal induction at 100 ng/mL
TetR = TetR (Escherichia coli, UniProt P0ACT4, D23E/I36V/T20V); details: cited from earlier work
TetR, sequence (P0ACT4 with tags, fused parts or gaps T20V/D23E/I36V): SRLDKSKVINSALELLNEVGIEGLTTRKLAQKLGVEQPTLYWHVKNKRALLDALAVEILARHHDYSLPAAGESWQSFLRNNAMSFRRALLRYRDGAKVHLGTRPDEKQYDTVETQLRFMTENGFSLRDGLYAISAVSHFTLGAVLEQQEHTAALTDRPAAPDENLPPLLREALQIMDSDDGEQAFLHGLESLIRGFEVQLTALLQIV

[8] = tested on: urePtetO induction of Tet-ON strains; test: Urease plate assay; assay type: cell-based, H. pylori; details: for ATc concentration at which significant urease activity is detected: after 24 h
[9] = tested on: Tet-ON mdaB::ptetR; urePtetO strains; test: In vivo induction of urePtetO by doxycycline, C57BL/6J infection model; design: species or system H. pylori; details: for dox concentration at which the strain could be re-isolated: one week of infection, C57BL/6J mice
Protocol: Regulation of urePtetO to drive the expression of urease by dox was evaluated using a C57BL/6J infection model. Mice were orally challenged with one of several Tet-ON, mdaB::ptetR; urePtetO strains and supplemented with a range of dox concentrations that were within the tolerance of X47. Urease is known to be an essential gene required for colonization, and therefore Tet-ON urePtetO strains should not be able to colonize in the absence of the inducer. […] Infection of urePtetO strains is dependent on dox supplementation (FIG. 9F). Mice were supplemented with dox for two weeks after infection to establish successful colonization of mdaB:: ptetR4; urePtetOI. […] Infection by strain mdaB::ptetR4; urePtetOI could be maintained for at least 4 weeks with dox supplementation.
6-7 week old C57BL/6J female mice were orally gavaged once with 200 μL of 1×10^9 CFU/mL bacteria, that had been passaged on CBA plates containing 50 ng/mL ATc to induce expression of tetracycline responsive genes. Mice were supplemented with doxycycline in their drinking water containing 5% sucrose. Mice were sacrificed at indicated time points and stomachs were removed and homogenized in 1 mL BHI using a tissue lysing agent (Retch). Homogenates were serially diluted and plated out on H. pylori selective plates, (CBA containing 5% Horse blood, Dent, polymyxin B 2500 U/L or 0.2975 mg/L, nalidixic acid 10 mg/L and Bacitracin 100 mg/L). Colonies were counted to calculate bacteria load. Re-isolated clones were checked for tet responsive gene expression and sequenced when appropriate.

Cc1c2c(c(O)c3c(O)cccc13)C(=O)[C@]1(O)C(=O)C(C(N)=O)=C(O)[C@@H](N(C)C)[C@@H]1C2 [ATc, Anhydrotetracycline]
GFP expression around ATc discs (ptetR2 and uPtetO1-GFP): halo of GFP expression is evident around each disc
GFP expression (observed fluorescence intensities) ([1]; strains expressing TetR): induction
GFP expression (observed fluorescence intensities) ([1]; strains expressing revTetR): repression
time of maximal GFP activities after the addition of ATc ([2]; ptetR2 and ptetR4 containing bacteria): 16 h
kinetics of GFP induction ([2]; ptetR6 containing bacteria): strong but delayed induction
binding affinity for revTetR (revTetR): very high binding affinity
expression of FliCsyn [3]: showed expression of FliCsyn
urease activity on addition of ATc ([4]; strains ptetR2, urePtetOI and V, ptetR3, urePtetOIV and ptetR6, urePtetOV): only partially restored
urease activity on addition of ATc ([4]; strains ptetR2, urePtetOII, ptetR3, urePtetOI, II and III): completely restored urease activity
urease activity on addition of ATc ([4]; the other Tet-ON strains): below 10 % of wild-type urease activity
induction of GFP expression ([5]; ptetR2 uPtetO1, all three recipient loci): 4-9 fold
induction of GFP expression ([5]; ptetR4 uPtetO1, all three recipient loci): 13-80 fold
induction of GFP expression ([5]; ptetR6 uPtetO1, all three recipient loci): 2-5 fold
induction of GFP expression ([5]; uPtetO2 strains, ptetR2): 1.5-3 fold
induction of GFP expression ([5]; uPtetO2 strains, ptetR4): 3-8 fold
induction of GFP expression ([5]; uPtetO2 strains, ptetR6): 3-8 fold
ATc concentration giving maximal GFP activities ([5]; bacteria grown in different concentrations of ATc): 100 ng/mL
GFP activities compared with maximal induction ([5]; induction with 25 ng/ml ATc): 2.4 fold lower
urease activity by diffusion of ATc from disc (urease activity): induced
cre expression [6]: induced
repression of UreB expression ([7]; constructs I, II and V of the Tet-OFF system): Incomplete repression
response of urePtetO to ATc ([7]; strains harbouring ptetR3): did not display response
abundance of the UreB subunit upon the addition of ATc ([7]; strains harbouring the revTetR repressor (Tet-OFF system)): reduced below the detection limit
ATc concentration of maximal induction relative to the minimal inhibitory concentration (MIC) (H. pylori): 10 fold below
binding affinity for TetR (TetR): very high binding affinity
ATc concentration sufficient to induce all five urePtetO promoters ([8]; ptetR4 strains): 1 ng/mL
ATc concentrations at which urease activity decreases ([8]; ptetR4 strains): above 25 ng/mL
ATc concentrations at which urease activity decreases ([8]; ptetR6 strains): above 50 ng/mL
ATc concentration at which urease activity is evident ([8]; ptetR6 strains, urePtetOIII, only after 48 hr): 25 ng/mL and 50 ng/mL
ATc concentration at which significant urease activity is detected ([8]; ptetR6 strains, urePtetOIV): 10 ng/mL
ATc concentration at which significant urease activity is detected ([8]; ptetR6 strains, urePtetOV): 5 ng/mL

C[C@H]1c2cccc(O)c2C(=O)C2=C(O)[C@]3(O)C(=O)C(C(N)=O)=C(O)[C@@H](N(C)C)[C@@H]3[C@@H](O)[C@@H]21 [dox, doxycycline]
time infection could be maintained with dox supplementation ([9]; strain mdaB::ptetR4, urePtetOI): at least 4 weeks
dox concentration at which the strain could be re-isolated ([9]; strain mdaB::ptetR4, urePtetOI): 0.1 to 5 µg/mL
dox concentration at which the strain could be re-isolated ([9]; strain mdaB::ptetR6, urePtetOV): 5 to 20 µg/mL
